According to US20160058753A1, “Nalmefene for Treatment of Patients with Mood Disorder” (H. LUNDBECK A/S, priority 2013, published 2016):

What was measured:
[1] = tested on: patients with comorbid bipolar disorders; details: literature; cited from earlier work
[2] = tested on: Mice (NMRI); assay: Marble burying test in mouse; type: in vivo; details: for Number of marbles covered by sawdust, Mean ± SEM: 30 minute test, 25 marbles
Source text: The method, which detects anxiolytic/tranquillizing activity, follows that described by Broekkamp et al (Eur. J. Pharmacol., 126, 223-229, 1986). Mice exposed to novel objects (marbles) will bury them in the sawdust floor covering. Anxiolytics decrease the number of marbles buried at non-sedative doses.
Mice (NMRI) were individually placed in transparent plastic cages (33×21×18 cm) with 5 cm of sawdust on the floor and 25 marbles grouped in the centre of the cage. The cage was covered with an inverted plastic cage. Each test cage, together with the marbles, was impregnated with mouse odor before-hand by leaving 10 mice in the cage for 15 minutes. These mice then played no further role in the experiment.
Nalmefene was tested in the marble burying model as the sole active compound. The number of marbles covered by sawdust (⅔ or more) was counted at the end of a 30 minute test. 12 mice were studied per group. The test was performed blind. Nalmefene was evaluated at 3 doses (0.01, 0.1 and 1 mg/kg), administered s.c. 30 minutes before the test, and compared with a vehicle control group. Clobazam (8 mg/kg s.c.), administered under the same experimental conditions, was used as reference substance. The experiment therefore included 8 groups.
Data with Nalmefene were analysed by comparing treated groups with vehicle control using Kruskall-Wallis test followed by Mann-Whitney U tests. Data with the reference substance were analysed using Mann-Whitney U tests. Due to the number of groups, the study was conducted over 2 separate sub-experiments, each sub-experiment including 6 mice per group.

[3] = tested on: patients with alcohol dependence; assay: Study 12013A: clinical efficacy on the reduction of alcohol consumption (HDD, TAC); type: in vivo, human; details: for HDD / TAC: patients with a mood disorder at baseline according to MINI assessment
Source text: (§1) The diagnosis of alcohol dependence was based on the DSM-IV-TR criteria. For this purpose, the investigator interviewed the patient in a structured way by using the Mini International Neuropsychiatric Interview (MINI) standardized interview (Lecrubier et al. The Mini International Neuropsychiatric Interview (M.I.N.I.). A short diagnostic structured interview: Reliability and validity according to the CIDI. European Psychiat. (1997), 12: 224-31). The M.I.N.I. is designed as a brief structured interview for the major Axis I psychiatric disorders in DSM-IV. Its use permits a standardised assessment of the diagnostic criteria. The M.I.N.I. interview was used at the screening visit. Clinicians used it after a training session. The M.I.N.I. approach was used to select patients with a mood disorder at baseline in Example 3.
(§2) Another approach to identify patients with a mood disorder is by defining mood disorder at baseline as any ongoing medical history coded by the Medical Dictionary for Regulatory Activities (MedDRA) Preferred Term as ‘Affective Disorder’, ‘Bipolar Disorder’, ‘Depressed Mood’, ‘Depression’, ‘Dysthymic Disorder’, ‘Hypomania’, ‘Major Depression’, ‘Mood Disorder Due To A General Medical Condition’ and/or ‘Seasonal Affective Disorder’. In examples 1 and 2 below patients classified with a mood disorder at baseline was selected based on said MedDRA terms.
The efficacy of nalmefene on the reduction of alcohol consumption in patients with alcohol dependence (DSM-IV) was evaluated in a multi-national, multi-site, randomised, double blind, two parallel group, placebo controlled 1 year safety study (Study 12013A). The efficacy was evaluated over 24 weeks of treatment. The study included outpatients, aged ≧18 years, with a primary diagnosis of alcohol dependence. […] Patients with psychiatric co-morbidity (that is, patients who used stable doses of antipsychotics and/or certain antidepressants) were also included unless the treatment of the psychiatric comorbidity had to take priority over treatment of the drinking problem, or was likely to interfere with study treatment or impairs treatment compliance.
The study included 639 patients, 482 of whom were treated with nalmefene 18 mg in an as-needed dosing regimen. A motivational and adherence enhancing intervention was administered to all the patients to support the patients in changing their behavior and to enhance adherence to treatment.
The efficacy of nalmefene on the reduction of alcohol consumption was measured using two co-primary endpoints: the change from baseline to Month 6 in the monthly number of heavy drinking days (HDDs) and the change from baseline to Month 6 in the average daily total alcohol consumption (TAC). A HDD was defined as a day with a consumption ≧60 g alcohol for men and ≧40 g for women.
(§3) Table 10 below outlines drinking variables and POMS TMD score patients from the 12013A study with a mood disorder at baseline who were classified based on MINI standardized interviews.

[4] = tested on: Mice (NMRI); assay: Forced swim test in mouse; type: in vivo; details: for Duration of immobility, Mean ± SEM: last 4 of 6 minutes
Protocol: The method, which detects antidepressant activity, follows that described by Porsolt et al (Arch. Int. Pharmacodyn., 229, 327-336, 1977). Mice forced to swim in a situation from which they cannot escape eventually become immobile. Antidepressants decrease the duration of immobility.
Nalmefene was tested as the sole active compound. Mice (NMRI) were individually placed in a cylinder (height=24 em; diameter=13 em) containing 10 cm water (22° C.) from which they cannot escape. The mice were placed in the water for 6 minutes and the duration of immobility during the last 4 minutes was measured. The latency to the first bout of immobility was also recorded starting from the beginning of the test.
10 mice were studied per group. The test was performed blind. Each test substance was evaluated at 3 doses (0.1, 1 and 10 mg/kg), administered s.c. 30 minutes before the test, and compared with a vehicle control group.
Imipramine (32 mg/kg s.c.), administered under the same experimental conditions, was used as reference substance. The experiment therefore included 8 groups.
Data with the test substance were analysed by comparing treated groups with vehicle control using one-way ANOVA followed by post-hoc Dunnett's tests. Data with the reference substance were analysed using unpaired Student's t tests. Due to the number of groups, the study was conducted over 2 separate sub-experiments, each subexperiment including 5 mice per group.

[5] = molecular target: κ receptor (Homo sapiens, UniProt P41145); details: in vitro; cited from earlier work
Chain of κ receptor (P41145 whole entry): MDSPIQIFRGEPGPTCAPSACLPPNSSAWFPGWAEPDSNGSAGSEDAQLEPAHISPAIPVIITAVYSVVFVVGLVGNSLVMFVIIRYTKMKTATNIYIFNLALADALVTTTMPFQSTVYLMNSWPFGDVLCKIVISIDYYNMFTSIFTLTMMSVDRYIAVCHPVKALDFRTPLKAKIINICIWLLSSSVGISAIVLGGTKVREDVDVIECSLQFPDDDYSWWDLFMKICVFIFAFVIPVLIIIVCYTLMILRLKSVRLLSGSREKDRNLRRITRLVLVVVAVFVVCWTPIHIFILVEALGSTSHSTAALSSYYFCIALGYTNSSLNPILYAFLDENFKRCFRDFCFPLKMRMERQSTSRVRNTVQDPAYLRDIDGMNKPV

[6] = tested on: patients with alcohol dependence; assay: Study 12013A: clinical efficacy measured by POMS score; type: in vivo, human; details: for POMS TMD score: patients with a mood disorder at baseline according to MINI assessment
Source text: The term “POMS” is an abbreviation of “profile of mood states” and refers to a selfreport inventory scale developed to assess the effect of e.g. new medication on mood states and mood changes. The scale measures six domains: Tension-Anxiety, Depression-Rejection, Anger-Hostility, Vigour-Activity, Fatigue-Inertia, and Confusion-Bewilderment. A total mood disturbance (TMD) score can be calculated. In general, a lower POMS score indicates a better mood state than a higher score except for vigour-activity, for which a higher POMS score indicates a better mood state. The scale has been described e.g. by McNair et al., Profile of mood states. San Diego, Calif.: Educational and Industrial Testing Service and by Nyenhios and Yamamoto, J. Clin. Psychology, (1999), Vol. 55(1): 79-86.
as §1, §2
Assessment of POMs scores in Study 12013A was used to evaluate the effect of nalmefene on mood states and mood changes throughout the study. The change in POMS scores from baseline are illustrated in FIGS. 3-9.
In general, a lower POMS score indicates a better mood state than a higher score except for vigour, illustrated in FIGS. 7a and 7b, wherein a higher POMS score indicates a better mood state.
as §3

[7] = tested on: Rats (Wistar); assay: Forced swim test in rats; type: in vivo, rat; details: 0.01, 0.1 and 1 mg/kg s.c. 30 minutes before the test, versus vehicle
Protocol: The method, which detects antidepressant activity, follows that described by Porsolt et al (Eur. J. Pharmacol., 47, 379-391, 1978). Rats forced to swim in a situation from which they cannot escape eventually become immobile. Antidepressants decrease the duration of immobility.
Nalmefene was tested as the sole active compound. Rats (Wistar) were individually placed in a cylinder (height=40 cm; diameter=20 cm) containing 13 cm water (25° C.) for 15 minutes on the first day of the experiment (Session 1) and were then placed back in the water 24 hours later for a 5 minute test (Session 2). The duration of immobility during the 5 minute test was measured. 6 rats were studied per group. The test was performed blind. Nalmefene was evaluated at 3 doses (0.01, 0.1 and 1 mg/kg), administered s.c. 30 minutes before the test, and compared with a vehicle control group.
Data with the test substance were analysed by comparing treated groups with vehicle control using one-way ANOVA followed by post-hoc Dunnett's tests. Data with the reference substance were analysed using unpaired Student's t tests.

[8] = molecular target: δ receptor (Homo sapiens, UniProt P41143); details: in vitro; cited from earlier work
Chain of δ receptor (P41143 whole entry): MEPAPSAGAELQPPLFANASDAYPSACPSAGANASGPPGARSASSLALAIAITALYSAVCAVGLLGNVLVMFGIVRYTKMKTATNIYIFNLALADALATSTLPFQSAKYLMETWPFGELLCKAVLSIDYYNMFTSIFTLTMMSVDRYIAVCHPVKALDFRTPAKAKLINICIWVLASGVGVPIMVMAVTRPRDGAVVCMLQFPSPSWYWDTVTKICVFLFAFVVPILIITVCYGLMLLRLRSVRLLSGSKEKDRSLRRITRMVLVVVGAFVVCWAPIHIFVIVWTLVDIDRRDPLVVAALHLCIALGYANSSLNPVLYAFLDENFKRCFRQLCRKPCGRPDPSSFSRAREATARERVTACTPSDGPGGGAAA

[9] = molecular target: μ receptor (Homo sapiens, UniProt P35372); details: in vitro; cited from earlier work
Chain of μ receptor (P35372 whole entry): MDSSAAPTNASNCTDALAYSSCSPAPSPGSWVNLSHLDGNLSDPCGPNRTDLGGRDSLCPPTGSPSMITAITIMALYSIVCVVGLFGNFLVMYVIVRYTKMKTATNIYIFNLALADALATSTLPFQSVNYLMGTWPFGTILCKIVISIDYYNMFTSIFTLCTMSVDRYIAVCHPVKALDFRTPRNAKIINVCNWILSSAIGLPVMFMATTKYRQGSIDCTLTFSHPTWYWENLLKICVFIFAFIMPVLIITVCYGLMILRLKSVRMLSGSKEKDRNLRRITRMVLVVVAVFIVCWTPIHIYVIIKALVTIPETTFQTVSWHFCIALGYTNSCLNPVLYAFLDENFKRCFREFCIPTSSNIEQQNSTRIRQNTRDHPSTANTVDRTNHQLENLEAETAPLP

[10] = 0.01 mg/kg s.c. 30 minutes before the test
[11] = 0.1 mg/kg s.c. 30 minutes before the test
[12] = 1 mg/kg s.c. 30 minutes before the test
[13] = 1 year, nalmefene 18 mg as-needed
[14] = 10 mg/kg s.c. 30 minutes before the test

Compound: OCCOCCN1CCN(C2=Nc3ccccc3Sc3ccccc32)CC1 [quetiapine]
- efficacy on measures of alcohol use and dependence [1]: ineffective

Compound: C=C1CC[C@@]2(O)[C@H]3Cc4ccc(O)c5c4[C@@]2(CCN3CC2CC2)[C@H]1O5 [Nalmefene, 17-(cyclopropylmethyl)-4,5-alpha-epoxy-6-methylenemorphinan-3,14-diol]
- Number of marbles covered by sawdust, % compared with vehicle [2, 10]: −5%
- Number of marbles covered by sawdust, Mean ± SEM [2, 10]: 23.5 ± 1.2
- Number of marbles covered by sawdust, Mean ± SEM [2, 11]: 21.5 ± 1.2
- Number of marbles covered by sawdust, % compared with vehicle ([2]; 0.1 mg/kg s.c. 30 minutes before the test, p<0.01): −13%
- Number of marbles covered by sawdust, % compared with vehicle ([2]; 0.1 mg/kg s.c. 30 minutes before the test, p<0.01, listed as nalmefene): −13%
- Number of marbles covered by sawdust, % compared with vehicle [2, 12]: −10%
- Number of marbles covered by sawdust, Mean ± SEM [2, 12]: 22.4 ± 1.4
- effect on number of marbles covered by sawdust ([2]; 0.01 or 1 mg/kg s.c.): no significant effects
- HDD [3, 13]: 6.0
- TAC [3, 13]: 20.8 g/day
- HDD ([3]; Baseline, N=22): 16.0
- TAC ([3]; Baseline, N=22): 80.3 g/day
- alcohol consumption ([3]; patients with a mood disorder at baseline (MedDRA)): significally reduced the alcohol consumption
- difference between nalmefene and placebo in HDDs ([3]; patients with a mood disorder at baseline compared with patients without, week 24, FIG. 1): more pronounced
- difference between nalmefene and placebo in TAC ([3]; patients with a mood disorder at baseline compared with patients without, week 24, FIG. 2): more pronounced
- reducing TAC versus placebo ([3]; total patient group): superior to placebo
- reducing the number of HDDs versus placebo ([3]; total patient group): superior to placebo
- Duration of immobility, % compared with vehicle [4, 11]: +6%
- Duration of immobility, Mean ± SEM [4, 11]: 206 ± 7 s
- latency to immobility ([4]; 1 mg/kg s.c. 30 minutes before the test, versus vehicle): did not significantly affect
- Duration of immobility, Mean ± SEM [4, 12]: 140 ± 22 s
- Duration of immobility, % compared with vehicle ([4]; 1 mg/kg s.c. 30 minutes before the test, p<0.05): −28%
- Duration of immobility, % compared with vehicle [4, 14]: −3%
- Duration of immobility, Mean ± SEM [4, 14]: 189 ± 11 s
- effect in forced swim test ([4]; 0.1 or 10 mg/kg s.c.): no effects
- activity at the κ receptor [5]: partial agonist activity
- POMS TMD score [6, 13]: 37
- POMS TMD score ([6]; Baseline, N=22): 68
- general mood state (POMS data overall) ([6]; patients with a mood disorder): general mood state improves
- POMS score at the end of the study versus placebo ([6]; patients with a mood disorder at baseline, FIGS. 3b-9b): better POMS score
- POMS scores versus placebo: total mood disturbance, tension-anxiety, depression-rejection, anger-hostility and confusion ([6]; patients with a mood disorder at baseline, weeks 16-24, FIGS. 3b, 4b, 5b, 6b, 9b): better POMS scores
- pattern in POMS score versus placebo ([6]; patients without a mood disorder at baseline, FIGS. 3a-9a): no pronounced difference between nalmefene and placebo
- duration of immobility during the 5 minute test [7]: No significant effect
- activity at the δ receptor [8]: antagonist activity
- activity at the μ receptor [9]: antagonist activity

Compound: O=C1CCc2ccc(OCCCCN3CCN(c4cccc(Cl)c4Cl)CC3)cc2N1 [aripiprazole]
- efficacy on measures of alcohol use and dependence [1]: ineffective
